Data as given in the supplement of paper PMC10307832.

Assays:
Assay in all cases: relative viability (nuclei count vs DMSO), 5 days (fraction); higher = more cells survive
[1] = compound: CC(C)=CC[C@@H](O)C1=CC(=O)c2c(O)ccc(O)c2C1=O [Shikonin] + CC(=O)c1c(C)c2cnc(Nc3ccc(N4CCNCC4)cn3)nc2n(C2CCCC2)c1=O [Palbociclib] (partner 0.5 µM)
Summary of the method: (§1)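 Cells from lung cancer lines were seeded into 1536-well plates and, one day later, dosed by pin tool. Treatments were either a single drug or a fixed dose of an anchor drug with five library-drug doses (not always all listed) in √10 steps. After 5 days, nuclei were stained in a one-step fixation (final 0.05% Triton X-100, 1% formaldehyde, 1 ug/ml Hoechst) and counted on 4× images, and relative viability is the treated-to-vehicle nuclei ratio, as the median of duplicate plates.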

[2] = compound: CC(C)=CC[C@@H](O)C1=CC(=O)c2c(O)ccc(O)c2C1=O [Shikonin] + C[C@@H](Oc1cc(-c2cnn(C3CCNCC3)c2)cnc1N)c1c(Cl)ccc(F)c1Cl [Crizotinib] (partner 1 µM)
Summary of the method: as §1

[3] = compound: CC(C)N(CCCNC(=O)Nc1ccc(C(C)(C)C)cc1)C[C@H]1O[C@@H](n2ccc3c(N)ncnc32)[C@H](O)[C@@H]1O + CC(C)C[C@H](NC(=O)[C@H](Cc1ccccc1)NC(=O)c1cnccn1)B(O)O [Bortezomib] (partner 0.002 µM)
Summary of the method: as §1

[4] = compound: CC(C)N(CCCNC(=O)Nc1ccc(C(C)(C)C)cc1)C[C@H]1O[C@@H](n2ccc3c(N)ncnc32)[C@H](O)[C@@H]1O + O=C(CCCCCCC(=O)Nc1ccccc1)NO [Vorinostat] (partner 1 µM)
Summary of the method: as §1

| Cell Line | relative viability ([1]; first compound 0.01 µM) | relative viability ([1]; first compound 0.1 µM) | relative viability ([1]; first compound 0.3162 µM) | relative viability ([1]; first compound 1 µM) | relative viability ([2]; first compound 0.01 µM) | relative viability ([2]; first compound 0.1 µM) | relative viability ([2]; first compound 0.3162 µM) | relative viability ([2]; first compound 1 µM) | relative viability ([3]; first compound 0.08 µM) | relative viability ([3]; first compound 0.253 µM) | relative viability ([3]; first compound 0.8 µM) | relative viability ([3]; first compound 2.53 µM) | relative viability ([3]; first compound 8 µM) | relative viability ([4]; first compound 0.08 µM) | relative viability ([4]; first compound 0.253 µM) | relative viability ([4]; first compound 0.8 µM) | relative viability ([4]; first compound 2.53 µM) | relative viability ([4]; first compound 8 µM) |
| --- | --- | --- | --- | --- | --- | --- | --- | --- | --- | --- | --- | --- | --- | --- | --- | --- | --- | --- |
| NCI-H727 | 0.713 | 0.603 | 0.678 | 0.67 | 1.02 | 0.991 | 0.727 | 0.589 | 0.829 | 0.696 | 0.583 | 0.935 | 0.734 | 1.12 | 1.23 | 1.16 | 1.04 | 1.17 |
| NCI-H838 | 0.231 | 0.246 | 0.197 | 0.243 | 0.898 | 0.967 | 0.898 | 0.99 | 0.755 | 0.372 | 0.626 | 0.672 | 0.788 | 0.683 | 0.744 | 0.784 | 0.755 | 0.672 |
| NCI-H1355 | 0.421 | 0.419 | 0.383 | 0.398 | 1.16 | 1.31 | 1.19 | 1.12 | 1.15 | 1.2 |  | 1.22 | 1.08 | 0.592 | 0.632 | 0.529 | 0.642 | 0.575 |
| NCI-H1437 | 0.328 | 0.309 | 0.268 | 0.303 | 1.02 | 1.17 | 0.883 | 0.993 | 0.526 | 0.417 | 0.309 | 0.423 | 0.536 | 0.8 | 0.799 | 0.759 | 0.791 | 0.759 |
| NCI-H1650 | 0.395 | 0.448 | 0.247 | 0.319 | 1.06 | 0.993 | 1.06 | 0.691 | 0.185 | 0.205 |  | 0.205 | 0.201 | 0.451 | 0.608 | 0.485 | 0.474 | 0.444 |
| NCI-H1651 | 0.553 | 0.522 | 0.544 | 0.523 | 0.857 | 0.831 | 0.883 | 0.876 | 0.958 | 0.957 | 0.967 | 0.943 | 0.944 | 0.543 | 0.542 | 0.504 | 0.577 | 0.576 |
| NCI-H1666 | 0.648 | 0.664 | 0.617 | 0.599 | 1.12 | 0.971 | 1.12 | 0.744 | 0.802 | 0.775 | 0.613 | 0.83 | 0.697 | 1.1 | 1 | 1.02 | 1.01 | 0.934 |
| NCI-H1734 | 0.319 | 0.38 | 0.323 | 0.308 | 0.665 | 0.769 | 0.717 | 0.632 | 0.701 | 0.921 | 0.355 | 0.973 | 0.847 | 0.773 | 0.611 | 0.677 | 0.783 | 0.756 |
| NCI-H1755 | 0.463 | 0.443 | 0.432 | 0.482 | 0.972 | 1.09 | 0.88 | 0.887 | 0.934 | 0.914 | 0.467 | 0.929 | 0.878 | 0.769 | 0.74 | 0.666 | 0.756 | 0.723 |
| NCI-H1915 | 0.535 | 0.521 | 0.525 | 0.645 | 0.904 | 1.1 | 0.915 | 1.07 | 0.911 | 0.972 | 0.622 | 0.894 | 0.935 | 0.495 | 0.582 | 0.483 | 0.475 | 0.485 |
| NCI-H1975 | 0.549 | 0.629 | 0.541 | 0.641 | 1.07 | 1.18 | 1.09 | 0.959 | 0.34 | 0.352 | 0.149 | 0.36 | 0.341 | 0.748 | 0.687 | 0.701 | 0.658 | 0.709 |
| NCI-H1993 | 0.687 | 0.672 | 0.722 | 0.455 |  | 0.922 | 0.866 | 0.93 | 0.96 | 0.912 | 0.915 | 1.13 | 1.16 | 0.663 |  | 0.661 | 0.748 | 0.818 |
| NCI-H2009 | 0.248 | 0.203 | 0.213 | 0.145 | 1.07 | 1.2 | 0.972 | 0.45 | 1.05 | 0.817 | 0.883 | 1.08 | 0.955 | 0.728 | 0.73 | 0.703 | 0.744 | 0.675 |
| NCI-H2023 | 0.437 | 0.363 | 0.411 | 0.401 | 0.767 | 0.583 | 0.667 | 0.604 | 0.89 | 0.451 | 0.872 | 1.09 | 0.821 | 0.605 | 0.608 | 0.576 | 0.584 | 0.45 |
| NCI-H2085 | 0.468 | 0.509 | 0.447 | 0.479 | 0.874 | 0.857 | 0.881 | 0.585 | 1.02 | 0.925 | 0.749 | 1.09 | 0.907 | 0.769 | 0.667 | 0.813 | 0.887 | 0.744 |
